Reference: ChEMBL document CHEMBL1153641, “Diaminocyclobutenediones as potent and orally bioavailable CXCR2 receptor antagonists: SAR in the phenolic amide region” (Bioorg Med Chem Lett, 2009)

How the values were obtained:
[1] = molecular target: T1, C-X-C chemokine receptor type 2 (Homo sapiens, UniProt P25025)
T1 sequence (P25025 whole entry): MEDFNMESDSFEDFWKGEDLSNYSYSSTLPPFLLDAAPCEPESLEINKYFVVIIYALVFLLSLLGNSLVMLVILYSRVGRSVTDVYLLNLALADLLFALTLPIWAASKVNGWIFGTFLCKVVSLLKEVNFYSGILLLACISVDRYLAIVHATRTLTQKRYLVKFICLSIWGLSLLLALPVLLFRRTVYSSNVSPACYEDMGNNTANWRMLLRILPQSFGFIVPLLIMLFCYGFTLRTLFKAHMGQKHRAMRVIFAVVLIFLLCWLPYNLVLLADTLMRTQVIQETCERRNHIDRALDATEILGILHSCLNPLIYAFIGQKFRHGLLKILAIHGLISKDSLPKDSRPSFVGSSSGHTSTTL
Description: Displacement of human [125I]IL-8 from human CXCR2

[2] = AUC in rat at 10 mg/kg, po; format: ADME, organism-based; design: dose 10 mg/kg, route oral; settings: plasma
[3] = molecular target: T2, C-X-C chemokine receptor type 1 (Homo sapiens, UniProt P25024)
T2 sequence (P25024 whole entry): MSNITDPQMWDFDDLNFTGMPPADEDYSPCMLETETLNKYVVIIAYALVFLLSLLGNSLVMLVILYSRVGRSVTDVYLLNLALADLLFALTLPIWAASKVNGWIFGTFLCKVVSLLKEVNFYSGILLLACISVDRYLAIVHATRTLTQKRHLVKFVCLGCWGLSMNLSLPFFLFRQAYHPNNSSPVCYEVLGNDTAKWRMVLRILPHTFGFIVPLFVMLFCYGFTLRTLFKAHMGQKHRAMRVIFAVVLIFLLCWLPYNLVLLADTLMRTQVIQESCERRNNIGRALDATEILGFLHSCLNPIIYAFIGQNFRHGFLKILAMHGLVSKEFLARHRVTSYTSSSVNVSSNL
Description: Displacement of human [125I]IL-8 from human CXCR1

SMILES	Ki [1]	AUC [2]	Ki [3]
CC[C@@H](Nc1c(Nc2cccc(C(=O)N3CCN(C(=O)c4ccccn4)CC3)c2O)c(=O)c1=O)c1ccccc1	20 nM		
CC[C@@H](Nc1c(Nc2ccc(-c3ccccn3)c(C(=O)N(C)C)c2O)c(=O)c1=O)c1ccccc1	15 nM		> 1000 nM
CC[C@@H](Nc1c(Nc2cc(C)cc(C(=O)N(C)C)c2O)c(=O)c1=O)c1cccs1	76 nM		2800 nM
CC[C@@H](Nc1c(Nc2ccccc2O)c(=O)c1=O)c1ccc(C)o1	22 nM		
CC[C@@H](Nc1c(Nc2cccc(C(=O)N3CC[C@H](O)C3)c2O)c(=O)c1=O)c1ccccc1	18 nM		21 nM
CC[C@@H](Nc1c(Nc2cccc(C(=O)N3CC[C@H](CO)C3)c2O)c(=O)c1=O)c1ccccc1	20 nM	0.44 µM·h	
CC[C@@H](Nc1c(Nc2ccc(-c3ccccc3)c(C(=O)N(C)C)c2O)c(=O)c1=O)c1ccccc1	17 nM		
CC[C@@H](Nc1c(Nc2cccc(C(N)=O)c2O)c(=O)c1=O)c1ccccc1	25 nM	2.2 µM·h	
CC[C@@H](Nc1c(N2CCOc3c(C(=O)N(C)C)cccc32)c(=O)c1=O)c1ccccc1	> 270 nM		
CC[C@@H](Nc1c(Nc2cccc(C(=O)N(C)C(C)C)c2O)c(=O)c1=O)c1ccccc1	11 nM	1.4 µM·h	123 nM
CC[C@@H](Nc1c(Nc2cccc(C(=O)N3CC(O)C3)c2O)c(=O)c1=O)c1ccccc1	20 nM	0.5 µM·h	
CC[C@@H](Nc1c(Nc2cccc(C(=O)O)c2O)c(=O)c1=O)c1ccc(C)o1	12 nM		
CC[C@@H](Nc1c(Nc2cccc(C(=O)N3CCN(C(C)=O)CC3)c2O)c(=O)c1=O)c1ccccc1	27 nM		
CC[C@@H](Nc1c(Nc2c(C)ccc(C(=O)N(C)C)c2O)c(=O)c1=O)c1ccccc1	4.5 nM	2.3 µM·h	381 nM
CC[C@@H](Nc1c(Nc2cccc(C(=O)NC)c2O)c(=O)c1=O)c1ccccc1	28 nM	0.4 µM·h	
CC[C@@H](Nc1c(Nc2cc(C)cc(C(=O)N(C)C)c2O)c(=O)c1=O)c1ccccc1	203 nM		
CC[C@@H](Nc1c(Nc2cccc(C(=O)N3CCOCC3)c2O)c(=O)c1=O)c1ccccc1	10 nM		
CC[C@@H](Nc1c(Nc2cccc(C(=O)N3CCCC3)c2O)c(=O)c1=O)c1ccccc1	9 nM	1 µM·h	
CC[C@@H](Nc1c(Nc2cccc(C(=O)N(C)C)c2OC)c(=O)c1=O)c1ccccc1	> 270 nM		

Continued, values first:

Ki [1]	AUC [2]	Ki [3]	SMILES
4.4 nM	17.4 µM·h		CC[C@@H](Nc1c(Nc2cccc(C(=O)N(C)C)c2O)c(=O)c1=O)c1ccccc1
5 nM	2.5 µM·h	210 nM	CC[C@@H](Nc1c(Nc2cccc(C(=O)N(C)C)c2O)c(=O)c1=O)c1cccs1
> 2000 nM			CC[C@@H](Nc1c(Nc2cc(-c3ccccc3)cc(C(=O)N(C)C)c2O)c(=O)c1=O)c1ccccc1
50 nM	2.2 µM·h	1220 nM	CC[C@@H](Nc1c(Nc2cc(Cl)cc(C(=O)N(C)C)c2O)c(=O)c1=O)c1cccs1
> 270 nM			CC[C@H](c1ccccc1)N(C)c1c(Nc2cccc(C(=O)N(C)C)c2O)c(=O)c1=O
5 nM		30 nM	CC[C@@H](Nc1c(Nc2cccc(C(=O)N3CCCC3C(=O)O)c2O)c(=O)c1=O)c1ccccc1 (stereo partly specified)
4 nM	0.06 µM·h		CC[C@@H](Nc1c(Nc2ccc(Br)c(C(=O)N(C)C)c2O)c(=O)c1=O)c1ccccc1
3 nM			CC[C@@H](Nc1c(Nc2cc(C#N)cc(C(=O)N(C)C)c2O)c(=O)c1=O)c1ccccc1
12 nM		41 nM	CC[C@@H](Nc1c(Nc2cccc(C(=O)N3CCN(C)CC3)c2O)c(=O)c1=O)c1ccccc1
61 nM	1.4 µM·h	2070 nM	CC[C@@H](Nc1c(Nc2cc(Br)cc(C(=O)N(C)C)c2O)c(=O)c1=O)c1cccs1
219 nM			CC[C@@H](Nc1c(Nc2cccc(C(=O)NC(C)C)c2O)c(=O)c1=O)c1ccccc1
5 nM		54 nM	CC[C@@H](Nc1c(Nc2cc(C#N)cc(C(=O)N(C)C)c2O)c(=O)c1=O)c1cccs1
34 nM			CC[C@@H](Nc1c(Nc2cccc(C(=O)NC3CC3)c2O)c(=O)c1=O)c1ccccc1
> 270 nM			CC[C@H](c1ccccc1)N(C)c1c(N(C)c2cccc(C(=O)N(C)C)c2O)c(=O)c1=O
